# Experimental data as given in ChEMBL document CHEMBL3885861, “Open TG-GATES”.
# Organism: Rattus norvegicus
# Test: Open TG-GATES - Regimen: Single
# Type: toxicity, organism-based, Sprague-Dawley
# Set-up: regimen Single, gender Male, age 6 weeks
# Conditions: in vivo, po, 1000 mg/kg, route gavage, dose level High; for APTT / Bas / Eos / Fbg / Hb / Ht / Lym / MCH / MCHC / MCV / Mono / Neu / PT / Plat / RBC / Ret / WBC: tissue Blood; for KIDNEY_L / KIDNEY_R / KIDNEY_TOTAL: tissue Kidney; for LIVER: tissue Liver; for A/G / ALP / ALT / AST / BUN / CRE / Ca / Cl / DBIL / GLC / IP / K / LDH / Na / PL / RALB / TBIL / TC / TG / TP / gamma-GTP: tissue Plasma
structure (smiles),measurement,setting,value
CNC(=C[N+](=O)[O-])NCCSCc1ccc(CN(C)C)o1 [RANITIDINE],TERMINAL_BW,3 h,218.6 g
same,APTT,3 h,21.3 s
same,Bas,3 h,0%
same,Eos,3 h,1%
same,Fbg,3 h,209 mg/dL
same,Hb,3 h,12.7 g/dL
same,Ht,3 h,36.7%
same,Lym,3 h,76.2%
same,MCH,3 h,21.7 pg
same,MCHC,3 h,34.7%
same,MCV,3 h,62.7 fL
same,Mono,3 h,2.4%
same,Neu,3 h,17.4%
same,PT,3 h,12.5 s
same,Plat,3 h,116.7 x10_4/uL
same,RBC,3 h,585.2 x10_4/ul
same,Ret,3 h,7.1%
same,WBC,3 h,84.3 x10_2/uL
same,KIDNEY_L,3 h,1 g
same,KIDNEY_R,3 h,1 g
same,KIDNEY_TOTAL,3 h,2.1 g
same,LIVER,3 h,10.5 g
same,A/G,3 h,1.7
same,ALP,3 h,944 IU/L
same,ALT,3 h,35.8 IU/L
same,AST,3 h,67.2 IU/L
same,BUN,3 h,9.4 mg/dL
same,CRE,3 h,0.4 mg/dL
same,Ca,3 h,10.5 mg/dL
same,Cl,3 h,104.4 meq/L
same,DBIL,3 h,0.064 mg/dL
same,GLC,3 h,181.2 mg/dL
same,IP,3 h,8.2 mg/dL
same,K,3 h,3.7 meq/L
same,LDH,3 h,148 IU/L
same,Na,3 h,141.4 meq/L
same,PL,3 h,133.6 mg/dL
same,RALB,3 h,3.3 g/dL
same,TBIL,3 h,0.1 mg/dL
same,TC,3 h,68 mg/dL
same,TG,3 h,44.8 mg/dL
same,TP,3 h,5.3 g/dL
same,gamma-GTP,3 h,1.2 IU/L
same,TERMINAL_BW,6 h,213.4 g
same,APTT,6 h,18.8 s
same,Bas,6 h,0%
same,Eos,6 h,1%
same,Fbg,6 h,232.8 mg/dL
same,Hb,6 h,13.4 g/dL
same,Ht,6 h,38%
same,Lym,6 h,72.8%
same,MCH,6 h,21.7 pg
same,MCHC,6 h,35.1%
same,MCV,6 h,62 fL
same,Mono,6 h,3%
same,Neu,6 h,18.4%
same,PT,6 h,12.7 s
same,Plat,6 h,106.2 x10_4/uL
same,RBC,6 h,613.8 x10_4/ul
same,Ret,6 h,7.1%
same,WBC,6 h,88.7 x10_2/uL
same,KIDNEY_L,6 h,0.9 g
same,KIDNEY_R,6 h,0.9 g
same,KIDNEY_TOTAL,6 h,1.9 g
same,LIVER,6 h,9.8 g
same,A/G,6 h,1.7
same,ALP,6 h,906.4 IU/L
same,ALT,6 h,37.2 IU/L
same,AST,6 h,63.8 IU/L
same,BUN,6 h,9.4 mg/dL
same,CRE,6 h,0.4 mg/dL
same,Ca,6 h,10.6 mg/dL
same,Cl,6 h,104 meq/L
same,DBIL,6 h,0.066 mg/dL
same,GLC,6 h,193.4 mg/dL
same,IP,6 h,8.3 mg/dL
same,K,6 h,3.6 meq/L
same,LDH,6 h,126.4 IU/L
same,Na,6 h,141 meq/L
same,PL,6 h,151.4 mg/dL
same,RALB,6 h,3.4 g/dL
same,TBIL,6 h,0.1 mg/dL
same,TC,6 h,80.8 mg/dL
same,TG,6 h,47.8 mg/dL
same,TP,6 h,5.4 g/dL
same,gamma-GTP,6 h,1.4 IU/L
same,TERMINAL_BW,9 h,210.2 g
same,APTT,9 h,20.1 s
same,Bas,9 h,0%
same,Eos,9 h,1%
same,Fbg,9 h,242.2 mg/dL
same,Hb,9 h,13.2 g/dL
same,Ht,9 h,38%
same,Lym,9 h,68.6%
same,MCH,9 h,21.8 pg
same,MCHC,9 h,34.8%
same,MCV,9 h,62.5 fL
same,Mono,9 h,2.4%
same,Neu,9 h,24.2%
same,PT,9 h,12.6 s
same,Plat,9 h,111.9 x10_4/uL
same,RBC,9 h,607.2 x10_4/ul
same,Ret,9 h,7.3%
same,WBC,9 h,74.1 x10_2/uL
same,KIDNEY_L,9 h,1 g
same,KIDNEY_R,9 h,1 g
same,KIDNEY_TOTAL,9 h,1.9 g
same,LIVER,9 h,9.2 g
same,A/G,9 h,1.6
same,ALP,9 h,955.2 IU/L
same,ALT,9 h,36 IU/L
same,AST,9 h,65.8 IU/L
same,BUN,9 h,8.8 mg/dL
same,CRE,9 h,0.3 mg/dL
same,Ca,9 h,10.6 mg/dL
same,Cl,9 h,103.8 meq/L
same,DBIL,9 h,0.066 mg/dL
same,GLC,9 h,197 mg/dL
same,IP,9 h,8.6 mg/dL
same,K,9 h,3.6 meq/L
same,LDH,9 h,126 IU/L
same,Na,9 h,140.8 meq/L
same,PL,9 h,152 mg/dL
same,RALB,9 h,3.4 g/dL
same,TBIL,9 h,0.1 mg/dL
same,TC,9 h,84.6 mg/dL
same,TG,9 h,30.2 mg/dL
same,TP,9 h,5.5 g/dL
same,gamma-GTP,9 h,1.2 IU/L
same,TERMINAL_BW,24 h,228.9 g
same,APTT,24 h,20.1 s
same,Bas,24 h,0.2%
same,Eos,24 h,1%
same,Fbg,24 h,235 mg/dL
same,Hb,24 h,13.9 g/dL
same,Ht,24 h,39.1%
same,Lym,24 h,79%
same,MCH,24 h,22.4 pg
same,MCHC,24 h,35.5%
same,MCV,24 h,63 fL
same,Mono,24 h,3.2%
same,Neu,24 h,15%
same,PT,24 h,11.7 s
same,Plat,24 h,122.4 x10_4/uL
same,RBC,24 h,621.4 x10_4/ul
same,Ret,24 h,5.9%
same,WBC,24 h,75.4 x10_2/uL
same,KIDNEY_L,24 h,1 g
same,KIDNEY_R,24 h,1 g
same,KIDNEY_TOTAL,24 h,2 g
same,LIVER,24 h,10.7 g
same,A/G,24 h,1.6
same,ALP,24 h,881.6 IU/L
same,ALT,24 h,33.2 IU/L
same,AST,24 h,60.4 IU/L
same,BUN,24 h,15.4 mg/dL
same,CRE,24 h,0.4 mg/dL
same,Ca,24 h,10.8 mg/dL
same,Cl,24 h,101.6 meq/L
same,DBIL,24 h,0.078 mg/dL
same,GLC,24 h,204.2 mg/dL
same,IP,24 h,7.9 mg/dL
same,K,24 h,3.7 meq/L
same,LDH,24 h,127.8 IU/L
same,Na,24 h,140.4 meq/L
same,PL,24 h,155.6 mg/dL
same,RALB,24 h,3.4 g/dL
same,TBIL,24 h,0.1 mg/dL
same,TC,24 h,84.4 mg/dL
same,TG,24 h,67.8 mg/dL
same,TP,24 h,5.6 g/dL
same,gamma-GTP,24 h,0.8 IU/L
